14 molecules from patent US7799792B2, “Metabotropic glutamate receptor oxadiazole ligands and their use as potentiators 841” (AstraZeneca AB, priority 2007, dated 2010) can be followed below.

Structures are written as SMILES. ≈ marks a conversion by molar mass, not a printed value.

Data set [1] can be described thus: Aqueous solubility in pH 7.4 phosphate buffer. In kind it is physicochemical. Particulars: thermodynamic from solid, equilibration 24 h at 25° C., read-out: Aq. solubility. As for the experimental part: Solubility was determined in pH 7.4 phosphate buffer after equilibration for 24 h at 25° C. and HPLC-UV and LC-MSMS were used for quantitation.
The target of another data set is T1, human mGluR2 receptor (Homo sapiens, UniProt Q14416).
T1 construct: expressed in transfected cells; host or cells: CHO cells, stably transfected; membranes
T1 sequence (Q14416 19-872): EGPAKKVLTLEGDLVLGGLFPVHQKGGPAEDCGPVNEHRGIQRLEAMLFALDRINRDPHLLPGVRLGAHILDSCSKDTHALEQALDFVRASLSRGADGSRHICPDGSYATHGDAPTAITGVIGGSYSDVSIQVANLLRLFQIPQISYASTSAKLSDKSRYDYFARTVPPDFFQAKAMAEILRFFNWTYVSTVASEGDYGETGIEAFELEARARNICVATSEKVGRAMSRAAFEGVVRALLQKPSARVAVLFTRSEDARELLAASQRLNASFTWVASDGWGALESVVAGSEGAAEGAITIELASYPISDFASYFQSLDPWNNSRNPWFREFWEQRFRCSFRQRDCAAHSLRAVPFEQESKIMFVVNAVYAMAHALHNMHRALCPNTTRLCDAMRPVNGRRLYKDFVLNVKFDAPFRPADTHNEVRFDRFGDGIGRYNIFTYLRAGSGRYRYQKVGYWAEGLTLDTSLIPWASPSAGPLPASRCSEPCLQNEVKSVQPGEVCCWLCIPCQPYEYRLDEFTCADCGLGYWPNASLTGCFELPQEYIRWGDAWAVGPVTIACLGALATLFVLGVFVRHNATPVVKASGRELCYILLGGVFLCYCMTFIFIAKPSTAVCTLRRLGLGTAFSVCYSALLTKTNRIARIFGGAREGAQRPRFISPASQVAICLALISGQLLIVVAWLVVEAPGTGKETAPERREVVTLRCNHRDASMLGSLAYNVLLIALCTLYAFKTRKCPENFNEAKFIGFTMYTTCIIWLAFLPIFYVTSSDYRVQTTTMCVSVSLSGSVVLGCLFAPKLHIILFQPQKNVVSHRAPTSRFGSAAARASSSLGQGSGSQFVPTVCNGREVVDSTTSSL
The data set can be described thus: [35S]-GTPγS binding assay of mGluR2 receptor activation (allosteric activator activity). It counts as biochemical. Particulars: membranes from CHO cells stably expressing human mGluR2; 1 μM glutamate; read-out: GTPgS EC50. On the procedure: A [^35S]-GTPγS binding assay was used to functionally assay mGluR2 receptor activation. The allosteric activator activity of compounds at the human mGluR2 receptor were measured using a [^35S]-GTPγS binding assay with membranes prepared from CHO cells which stably express the human mGluR2. The assay is based upon the principle that agonists bind to G-protein coupled receptors to stimulate GDP-GTP exchange at the G-protein. Since [^35S]-GTPγS is a non-hydrolyzable GTP analog, it can be used to provide an index of GDP-GTP exchange and, thus, receptor activation. The GTPγS binding assay therefore provides a quantitative measure of receptor activation.
Membranes were prepared from CHO cells stably transfected with human mGluR2. Membranes (30 μg protein) were incubated with test compound (3 nM to 300 μM) for 15 minutes at room temperature prior to the addition of 1 μM glutamate, and incubated for 30 min at 30° C. in 500 μl assay buffer (20 mM HEPES, 100 mM NaCl, 10 mM MgCl2), containing 30 μM GDP and 0.1 nM [^35S]-GTPγS (1250 Ci/mmol). Reactions were carried out in triplicate in 2 ml polypropylene 96-well plates. Reactions were terminated by vacuum filtration using a Packard 96-well harvester and Unifilter-96, GF/B filter microplates. The filter plates were washed 4×1.5 ml with ice-cold wash buffer (10 mM sodium phosphate buffer, pH 7.4). The filter plates were dried and 35 μl of scintillation fluid (Microscint 20) was added to each well. The amount of radioactivity bound was determined by counting plates on the Packard TopCount. Data was analyzed using GraphPad Prism, and EC50 and Emax values (relative to the maximum glutamate effect) were calculated using non-linear regression.
Background: GTPγS resists hydrolysis and so accumulates on activated G proteins.

One may read the solubility as how much of the substance goes into solution per volume. One may read the EC50 as the midpoint of the concentration-response curve. In the case of `O=C1c2c(Cl)cc(-c3noc(CN4CCNCC4)n3)cc2CN1Cc1ccc(OC(F)(F)F)cc1` [Example 1, 7-Chloro-5-(5-piperazin-1-ylmethyl-[1,2,4]oxadiazol-3-yl)-2-(4-trifluoromethoxybenzyl)-2,3-dihydroisoindol-1-one], the solubility at 24 h in data set [1] was 139 µM (≈ 70.6 µg/mL). Moreover, the concentration for a half-maximal effect (EC50) at human mGluR2 receptor was 226 nM.

Turning to `O=C1c2c(Cl)cc(-c3noc(CN4CCNCC4)n3)cc2CN1Cc1ccc(Cl)cc1` [Example 2, 7-chloro-2-(4-chlorobenzyl)-5-(5-piperazin-1-ylmethyl-[1,2,4]oxadiazol-3-yl)-2,3-dihydroisoindol-1-one], the solubility at 24 h in data set [1] stood at 176 µM (≈ 80.7 µg/mL). Besides, the EC50 at human mGluR2 receptor came to 431 nM.

On to `Cc1cc(-c2noc(CN3CCNCC3)n2)cc2c1C(=O)N(Cc1ccc(OC(F)(F)F)cc1)C2` [Example 3, 7-methyl-5-(5-piperazin-1-ylmethyl-[1,2,4]oxadiazol-3-yl)-2-(4-trifluoro-methoxybenzyl)-2,3-dihydroisoindol-1-one], for which, in data set [1], the solubility at 24 h came to 111 µM (≈ 54.1 µg/mL). Moreover, the concentration giving a half-maximal response (EC50) at human mGluR2 receptor worked out at 147 nM.

With `Cc1cc(-c2noc(CN3CCNCC3)n2)cc2c1C(=O)N(Cc1ccc(Cl)cc1)C2` [Example 4, 2-(4-chlorobenzyl)-7-methyl-5-(5-piperazin-1-ylmethyl-[1,2,4]oxadiazol-3-yl)-2,3-dihydroisoindol-1-one], the solubility at 24 h in data set [1] is 166 µM (≈ 72.7 µg/mL). For the same molecule, the 50% effective concentration (EC50) on human mGluR2 receptor amounted to 317 nM.

Consider `Cc1cc(-c2noc(CN3C[C@@H]4C[C@H]3CN4)n2)cc2c1C(=O)N(Cc1ccc(OC(F)(F)F)cc1)C2` [Example 5, 5-[5-(2,5-diaza-bicyclo[2.2.1]hept-2-ylmethyl)-[1,2,4]oxadiazol-3-yl]-7-methyl-2-(4-trifluoromethoxybenzyl)-2,3-dihydroisoindol-1-one], for which, in data set [1], the solubility at 24 h came out at 141 µM (≈ 70.4 µg/mL). Further, on human mGluR2 receptor, the EC50 came out at 75 nM.

Turning to `Cc1cc(-c2noc(CN3CCNCC3)n2)cc2c1C(=O)N([C@@H](C)c1ccc(Cl)cc1)C2` [Example 6, 2-[(S)-1-(4-Chloro-phenyl)-ethyl]-7-methyl-5-(5-piperazin-1-ylmethyl-[1,2,4]oxadiazol-3-yl)-2,3-dihydro-isoindol-1-one], the solubility at 24 h in data set [1] turned out to be 96 µM (≈ 43.4 µg/mL). For the same molecule, the EC50 at human mGluR2 receptor came out at 47.8 nM.

Consider `Cc1cc(-c2noc(CN3C[C@@H]4C[C@H]3CN4)n2)cc2c1C(=O)N([C@@H](C)c1ccc(Cl)cc1)C2` [Example 7, 2-[(S)-1-(4-Chloro-phenyl)-ethyl]-5-{5-[(1S,4S)-1-(2,5-diaza-bicyclo[2.2.1]hept-2-yl)methyl]-[1,2,4]oxadiazol-3-yl}-7-methyl-2,3-dihydro-isoindol-1-one], for which the solubility at 24 h in data set [1] was determined as 158 µM (≈ 73.3 µg/mL). Besides, the EC50 on human mGluR2 receptor was found to be 352 nM.

On to `Cc1cc(-c2noc(CN3CCNC[C@H]3C)n2)cc2c1C(=O)N(Cc1ccc(Cl)cc1)C2` [Example 8, 2-(4-chloro-benzyl)-7-methyl-5-[5-(2-methyl-piperazin-1-ylmethyl)-[1,2,4]oxadiazol-3-yl]-2,3-dihydroisoindol-1-one], for which, in data set [1], the solubility at 24 h worked out at 228 µM (≈ 103 µg/mL). Besides, the EC50 at human mGluR2 receptor was 202 nM.

Turning to `Cc1cc(-c2noc(CN3CCNC[C@@H]3C)n2)cc2c1C(=O)N(Cc1ccc(Cl)cc1)C2` [Example 9, 2-(4-chloro-benzyl)-7-methyl-5-[5-(2-methyl-piperazin-1-ylmethyl)-[1,2,4]oxadiazol-3-yl]-2,3-dihydroisoindol-1-one], in data set [1], the solubility at 24 h amounted to 158 µM (≈ 71.4 µg/mL). The EC50 at human mGluR2 receptor is 323 nM.

As for `Cc1cc(-c2noc(CN3CCNC(C)C3)n2)cc2c1C(=O)N(Cc1ccc(Cl)cc1)C2` (stereo not shown) [Example 10, 2-(4-chloro-benzyl)-7-methyl-5-[5-(3-methyl-piperazin-1-ylmethyl)-[1,2,4]oxadiazol-3-yl]-2,3-dihydroisoindol-1-one], in data set [1], the solubility at 24 h came out at 148 µM (≈ 66.9 µg/mL). Also, the EC50 at human mGluR2 receptor is 121 nM.

As to `CC1(C)CN(Cc2nc(-c3cc(Cl)c4c(c3)CN(Cc3ccc(OC(F)(F)F)cc3)C4=O)no2)CCN1` [Example 11, 7-chloro-5-[5-(3,3-dimethyl-piperazin-1-ylmethyl)-[1,2,4]oxadiazol-3-yl]-2-(4-trifluoro-methoxybenzyl)-2,3-dihydroisoindol-1-one], the solubility at 24 h in data set [1] amounted to 230 µM (≈ 123 µg/mL). Besides, the EC50 at human mGluR2 receptor worked out at 147 nM.

On to `Cc1cc(-c2noc(C(C)N3CCNCC3)n2)cc2c1C(=O)N(Cc1ccc(OC(F)(F)F)cc1)C2` (stereo not shown) [Example 12, 7-Methyl-5-[5-(1-piperazin-1-yl-ethyl)-[1,2,4]oxadiazol-3-yl]-2-(4-trifluoromethoxy-benzyl)-2,3-dihydro-isoindol-1-one], for which, in data set [1], the solubility at 24 h was 182 µM (≈ 91.3 µg/mL). At human mGluR2 receptor, the half-maximal effective concentration (EC50) came out at 307 nM.

`Cc1cc(-c2noc(C(C)N3CCNCC3)n2)cc2c1C(=O)N(Cc1ccc(Cl)cc1)C2` (stereo not shown) [Example 13, 2-(4-Chloro-benzyl)-7-methyl-5-[5-(1-piperazin-1-yl-ethyl)-[1,2,4]oxadiazol-3-yl]-2,3-dihydro-isoindol-1-one]: the solubility at 24 h in data set [1] came to 240 µM (≈ 108 µg/mL). In addition, the EC50 on human mGluR2 receptor worked out at 283 nM.

With `Cc1cc(-c2noc(C(C)N3CCNCC3)n2)cc2c1C(=O)N([C@@H](C)c1ccc(Cl)cc1)C2` (stereo partly drawn) [Example 14, 2-[(S)-1-(4-Chloro-phenyl)-ethyl]-7-methyl-5-[5-(1-piperazin-1-yl-ethyl)-[1,2,4]oxadiazol-3-yl]-2,3-dihydro-isoindol-1-one], the solubility at 24 h in data set [1] came out at 271 µM (≈ 126 µg/mL). The half-maximal effective concentration (EC50) on human mGluR2 receptor was 210 nM.
